Assay [1] concerns NF-κB p52. The assay can be described thus: BAFF-stimulated B cells, nuclear NF-κB p52 (Western blotting). Type of assay: cell-based, mouse. Particulars: vs 100 ng/mL BAFF; 100 μM mangiferin, 20 μM 1,3,5,6-tetrahydroxyxanthone, 10 μM others. On the procedure:
Spleens were harvested from 6-week-old male Balb/c mice and B cells were isolated. After isolation, the cells were seeded in […] dish and cultured in RPMI 1640 medium for 1 day and used as control. In addition, B cells were seeded into 100 mm^2 dish, and after 1 day of culture, 100 ng/mL BAFF was added and cultured for 1 h. Furthermore, B cells were seeded in […] dish, and after 1 day of culture, 100 μM mangiferin, 10 μM mangiferin 8a, 10 μM norathyriol, 20 μM 1,3,5,6-tetrahydroxyxanthone, 10 μM xanthohydrol, 10 μM of α-mangostin, and 10 μM of γ-mangostin were added to B cells, and after 23 h, 100 ng/mL BAFF was added to each, and the cells were incubated for 1 h. All were incubated at 37° C. and 5% CO2.
Proteins were extracted with cell lysate and used as samples. Each sample was transferred to a PVDF membrane after SDSPAGE and assayed with anti-phospho-NIK, anti-NIK, anti-NF-κB p52, anti-NF-κB p65 and anti-Lamin antibodies.
The antibody species is indicated in the vertical direction. Specifically, in the case of anti-phospho-NIK antibody (described as “Phospho-NIK”), anti-NIK antibody (described as “NIK”), anti-NF-κB p52 antibody (described as “NF-κB p52 nuclear”), anti-NF-κB p65 antibody (described as “NF-κB p65 nuclear”) and anti-Lamin antibody (described as “Lamin”).

Assay [2] relates to TNFα. Put plainly: LPS-stimulated TNFα secretion in B cells (ELISA). In kind it is cell-based, mouse. Particulars: 10 μM compound, 10 μg/mL LPS 2 days, control 15.13, LPS 296.31. On the procedure: Mouse B cells were used to examine the inhibition of compounds on TNFα secretion in LPS stimulation.
Mouse B cells were cultured in RPMI 1640 medium for 1 day. Then, 10 μM mangiferin 8a and 10 μM norathyriol were added to B cells, and after 1 day of culture, 10 μg/mL of LPS was added to each, followed by 2 days of culture.
Thus, the samples were divided into “control” with no treatment, “10 μg/mL LPS+10 μM mangiferin 8a” to which 10 μg/mL LPS and 10 μM mangiferin 8a were added, and “10 μg/mL LPS+10 μM norathyriol” to which 10 μg/mL LPS and 10 μM norathyriol were added and only 10 μg/mL LPS was added (“10 μg/L LPS”).
(§1) After these samples were incubated for 2 days, the culture supernatant was collected and TNFα secretion was measured by enzyme-linked immunosorbent assay (ELISA). The mouse TNFα ELISA kit (R&D) was used for this measurement.
(In an ELISA, binding on a coated surface is turned into a signal by an enzyme label.)

For assay [3], the system named is TNFα. The assay can be described thus: BAFF-induced TNFα secretion in B cells (ELISA). In kind it is cell-based, mouse. Conditions: DBA/1J spleen B cells; 10 μM compound, 100 ng/mL BAFF, 7 days; control 11.34, BAFF only 230.64. On the procedure:
Spleens were harvested from 6-week-old male DBA/1J mice and B cells were isolated. After isolation, the cells were cultured in RPMI 1640 medium for 1 day. Then, 10 μM mangiferin 8a and 10 μM norathyriol were added to B cells, and 100 ng/mL of BAFF was added to each 3 h later, and the cells were cultured for 7 days. After 7 days of culture, the culture supernatant was collected and TNFα secretion was measured by enzyme-linked immunosorbent assay (ELISA). This assay was performed using a mouse TNFα ELISA kit (R&D).

The test system of assay [4] is Balb/c mice with atopic dermatitis (MC903 applied to the auricle). The assay can be described thus: Auricular swelling in MC903-induced atopic dermatitis mice. Type of assay: in vivo, mouse. On the procedure:
MC903 at 2 nM was applied to the right auricle of a 6-week-old male Balb/c (Japan SLC Inc.). Starting 8 h later, 5% norathyriol aqueous solution (1 mL of ethanol containing […] of norathyriol), betamethasone ointment, and delgocitinib ointment were applied to the auricle for 7 days. The measurement of auricular skin swelling was calculated by calipers. The day on which the first application of the compound was made was defined as day 0. Betamethasone and delgocitinib are currently in clinical use in atopic dermatitis and were used as control drugs in this example.
Those without MC903 or norathyriol are called the control group, those with MC903 are called the vehicle group, those with 5% norathyriol aqueous are called the 5% norathyriol-applied group, those with betamethasone ointment are called the betamethasone-applied group, and those with delgocitinib ointment is referred to as the delgocitinib-applied group.
Solid white circles indicate the control group (labeled “control”). Solid black squares indicate the vehicle group (labeled “vehicle”), dotted black diamonds indicate the 5% norathyriol aqueous application group (labeled “MC903+5% norathyriol”), dashed black crosses indicate the betamethasone application group (labeled “MC903+betamethasone ointment”), and single-dotted black dots indicate the delgocitinib application group (labeled “MC903+delgocitinib ointment”).

Assay [5] deals with B cells collected from mice. Put plainly: LPS-induced differentiation into plasma cells (CD138 flow cytometry). In kind it is cell-based, mouse. Conditions: 10 μM compound, 10 μg/mL LPS, 10 days; vs LPS-added group. On the procedure: B cells collected from mice were cultured in RPMI 1640 medium for 1 day. Then, 10 μM mangiferin 8a and 10 μM norathyriol were added to B cell, and after 1 day of culture, 10 μg/mL of LPS was added, followed by 10 days of culture. After 10 days of culture, cells were stained with anti-CD138 antibody, a marker of plasma cells, and CD138 expression was measured using BD LSRFortessa.
A general note: In flow cytometry, cells or beads pass a laser one at a time.

The subject of assay [6] is TNFα. The assay can be described thus: LPS-stimulated TNFα secretion in macrophages (ELISA). Particulars: 10 μM compound, 10 μg/mL LPS 2 days, control 24.11, LPS 421.13. In kind it is cell-based, mouse. On the procedure:
Mouse macrophages were used to examine the inhibition of compounds on TNFα secretion in LPS stimulation.
Mouse macrophages were cultured in RPMI 1640 medium for 1 day. Then, 10 μM mangiferin 8a and 10 μM norathyriol were added to macrophages, and after 1 day of culture, 10 μg/mL of LPS was added to each, followed by 2 days of culture.
Thus, the samples were divided into “control” with no treatment, “10 μg/mL LPS+10 μM mangiferin 8a” to which 10 μg/mL LPS and 10 μM mangiferin 8a were added, and “10 μg/mL LPS+10 μM norathyriol” to which 10 μg/mL LPS and 10 μM norathyriol were added and only 10 μg/mL LPS was added (“[…] LPS”).
as §1

SMILES strings stand for the structures.

On to `O=c1c2cc(O)c(O)cc2oc2cc(O)cc(O)c12` [norathyriol, 1,3,6,7-tetrahydroxyxanthone], for which the “nuclear NF-κB p52 band (immunoblotting)” value in assay [1] is given as “fainter”. In addition, the TNFα secretion in assay [2] is listed as 64.13 pg/mL; in assay [3] it was 45.07 pg/mL; in assay [6], 68.13 pg/mL. Also, the auricular skin swelling entry in assay [4] (male Balb/c, MC903 on right auricle, 5% norathyriol aqueous solution, betamethasone ointment or delgocitinib ointment applied to auricle for 7 days, vs vehicle group) was “swelling was significantly reduced”. Moreover, the “swelling and redness of auricular skin (photograph)” value in assay [4] (right auricle at day 7, topical 5% norathyriol aqueous, betamethasone ointment, delgocitinib ointment) is “showed some redness, but not as much as in the target group”. Also, in assay [5], the CD138 expression entry is “significantly decreased CD138 expression”.

For the origin of these results see patent US20260007634A1, “PHARMACEUTICAL COMPOSITIONS FOR THE TREATMENT OF ALLERGIC DISEASES” (KINKI UNIVERSITY, priority 2022, published 2026).
